# Laboratory results taken from article PMC9090609 (RSC Advances, 2018).
# System: E.c.-ALDC (acetolactate decarboxylase from Enterobacter cloacae)
# Assay: circular dichroism at […] nm, formation of
# Format: biochemical
# Settings: pH 6, 30 °C; racemic substrate 5.3-53.4 mM
smiles,measurement,value
CC(=O)C(C)(O)C(=O)O (racemic) [(±)-AL],Km,12.2 mM
